Test results from patent publication US20260308173A1, “OXAZOLOPYRIDIN-7(4H)-ONE WRN INHIBITORS” (NIMBUS WADJET, INC., priority 2023, published 2026).

Key:
human Werner helicase = target: T1, human Werner helicase (Homo sapiens, UniProt Q14191, L1074F); assay: WRN (BV08) ADP-Glo Assay; type: biochemical; details: WRN-BV08 (517-1235 L1074F) 0.15 nM, 0.1 nM DNA duplex, ATP, 15 min preincubation, 60 min at 25° C, pH 7.5; read-out: ADP-Glo_hWRN_IC50
T1 construct: Uniprot Q14191, amino acids 517-1235 with L1074F point mutation; TEV-cleavable 8xHis tag (C, cleaved yes); made in house; host or cells: Sf9 insect cells (baculovirus)
Excerpt: Example 2: WRN (BV08) ADP-Glo Assay Protocol
Bovine skin gelatin (BSG), dimethyl sulfoxide (DMSO), Pluronic F-127 and tris(2-carboxyethyl)phosphine hydrochloride solution (TCEP) were purchased from Sigma-Aldrich (St. Louis, MO) at the highest level of purity possible. Bicine buffer solution was purchased from Alfa Aesar (Tewksbury, MA) and compound NSC-617145 was purchased from Tocris (Minneapolis, MN). DNA duplex was synthesized at BGI (Shenzhen, China) and was composed of strand 1 with the sequence 5′-[…]-3′ (SEQ ID NO.: 1) and strand 2 with the sequence 5′-[…]-3′ (SEQ ID NO.: 2). DNA strands were annealed by heating to 95° C. for 5 minutes followed by slow cooling to room temperature. Compounds in 100% DMSO (0.1 μl) were spotted into a 384-well white polystyrene Optiplate-384 (Perkin Elmer; Waltham, MA) assay plate using a LabCyte Echo 550 (Agilent; Santa Clara, CA). DMSO (0.1 μl) was added to columns 12, rows A-H and column 24, rows I-P for the maximum signal control. Compound NSC-617145 (0.1 μl) was added to columns 12, rows I-P and 24, rows A-H for the minimum signal control (100% inhibition). Compounds/DMSO were preincubated for 15 minutes at 25° C. with 5 μl 2×WRN (BV08), prepared as described below, in assay buffer containing 20 mM Bicine (pH=7.5), 1 mM MgCl2, 10 mM KCl, 0.1% Pluronic F-127, 0.005% BSG, 1 mM TCEP. The reaction was initiated by the addition of 5 μl 2× substrate mixture in assay buffer and incubated for 60 minutes at 25° C. The final concentrations of the assay components were 0.15 nM WRN, 5 µM ATP, and 0.1 nM DNA duplex. The final DMSO concentration was 1% and the reference compound concentration (NSC-617145) used for the minimal signal control was 20 μM. The reaction was stopped by the addition of the ADP-Glo Kit components (Promega; Madison, WI) as directed and the relative luminescence units (RLU) were read on an Envision 2104 (Perkin Elmer; Waltham, MA).
Where RLU=relative luminescence units, sample=signal in sample well, and MIN and MAX are the respective minimum and maximum signal controls.
Y=Bottom+(Top−Bottom)/(1+(IC50/X)^Hill Slope)
Where top and bottom are normally allowed to float but may be fixed at 100 or 0 respectively in a 3-parameter fit. Y is the % inhibition and X is the compound concentration.
Molecular Biology and virus production. The DNA encoding human Werner helicase (Uniprot Q14191, amino acids 517-1235 with L1074F point mutation) was generated with codon-optimization for E. coli expression and subcloned into the pFastBac vector with a TEV cleavable 8×His tag (WRN—BV08). The baculovirus from the expression plasmid WRN—BV08 was generated from transfection and amplification following the manufacturer's instructions.
Sf9 cells grown in SF900II media were infected with 1:200 WRN—BV08 P2 virus and incubated for protein expression for 72 h at 27° C. The WRN protein was purified using the following protocol. The cell pellets were thawed and resuspended in buffer A (50 mM Tris, pH 7.5, 500 mM NaCl, 1 mM TCEP, 10% Glycerol) supplemented with 0.5% CHAPS, 1 mM [COMPOUND LEFT OUT], 1 μg/ml Leupeptin, 1 μg/ml Pepstatin, and the Pierce Universal Nuclease and cocktail tablet. Cleared lysates were loaded onto a Ni Sepharose™ excel column and washed with buffer A and bound protein was eluted with buffer A supplemented with 300 mM imidazole. The eluted protein was dialyzed against buffer A and digested by His-tagged TEV (1:5 ratio) overnight at 4° C. […]

p21 (Homo sapiens) = target: T2, p21 (Homo sapiens); assay: Effect on p21 induction in HCT116 cells; type: cell-based; details: HCT116 colon carcinoma cells, 24 h, p21/GAPDH ratio, percent activation vs internal reference WRN inhibitor; read-out: P21_EC50
T2 construct: p21 in-cell western after 24 h, GAPDH normalised
Experimental: Example 3: Method for Determining Effect on p21 Induction in Cells
The colon carcinoma cell line HCT116 was obtained from ATCC and cultured in growth medium consisting of Mccoy's 5A Medium (Gibco 16600108) supplemented with 10% FBS (Transgene FS201-02) and 100 units/mL penicillin-streptomycin (Gibco 15140122) and maintained at 37° C. under 5% CO2. On the day of seeding, 2,000 cells in 30 μL of culture media were plated per well to Poly-D-Lysine 384 Well Black Clear Plates (Biocoat 356663) and incubated overnight at 37° C. under 5% CO2. The following day, compounds were serially diluted in DMSO for a total of 11 test concentrations. The typical starting concentration of cpds was 10 μM with 2-fold dilutions. Next, 150 nL of diluted compound was added in duplicate to the assay plate, using an Echo 655 (Labcyte). The plate was centrifuged at 500 RPM for 1 min and then incubated at 37° C. under 5% CO2 for 24 h. After 24 h, medium was removed, and cells were fixed by adding 40 μL of 4% paraformaldehyde solution to each well and incubated for 20 min at room temperature. The plate was then washed 4 times with 100 μL per well of wash buffer (PBS with 0.1% Tween-20) using a microplate washer. Next, 30 μL of ice-cold methanol was added to each well and the plate was incubated at −20° C. for 10 min. The plate was washed 4 times with 100 μL per well of wash buffer by a microplate washer, then 30 μL per well of blocking buffer ((Intercept PBS blocking buffer (LI-COR 927-70001) with 0.05% Tween-20)) was added and the plate was incubated at room temperature with shaking for 2h. Next, to each test well, 20 μL of primary antibody solution ((p21 Waf1/CIP (12D1) Rabbit mAb (Cell Signaling Technologies 2947) diluted 1:1000 and GAPDH (D4C6R) Mouse mAb (Cell Signaling Technologies 97166) diluted 1:2000 in blocking buffer)) was added and the plate was placed at 4° C., overnight. The following day, the plate was washed 5 times with 100 μL per well of wash buffer using a microplate washer for 5 min. 20 μL per well of secondary antibody ((IRDye 680CW Goat anti-Mouse IgG (H+L) (LI-COR 926-68070) diluted 1:2000 in Blocking Buffer and IRDye 800CW Goat anti-Rabbit IgG (H+L) (LI-COR 926-32211) diluted 1:2000 in Blocking Buffer)) was then added and the plate was stored for 2 h in the dark at room temperature with shaking. The plate was then washed 4 times with 100 μL per well of wash buffer again using a microplate washer. Finally, the p21 signal and the GAPDH signal were quantified using a LI-COR Odyssey CLx Imager machine reading at 800 nm and 700 nm, respectively. Each plate contained DMSO control (low control) and an internal reference WRN inhibitor (high control) respectively. For quantitation, the 800 nm/700 nm ratio was calculated for each well to give fold p21 induction and then percent activation for each compound well was calculated as follows ((100×(ratio cpd well−ratio low control)/(ratio high control−ratio low control)). EC50 values for each compound was generated after non-linear regression curve fitting using commercially available software.

T1 sequence (Q14191 with tags, fused parts or gaps L1074F): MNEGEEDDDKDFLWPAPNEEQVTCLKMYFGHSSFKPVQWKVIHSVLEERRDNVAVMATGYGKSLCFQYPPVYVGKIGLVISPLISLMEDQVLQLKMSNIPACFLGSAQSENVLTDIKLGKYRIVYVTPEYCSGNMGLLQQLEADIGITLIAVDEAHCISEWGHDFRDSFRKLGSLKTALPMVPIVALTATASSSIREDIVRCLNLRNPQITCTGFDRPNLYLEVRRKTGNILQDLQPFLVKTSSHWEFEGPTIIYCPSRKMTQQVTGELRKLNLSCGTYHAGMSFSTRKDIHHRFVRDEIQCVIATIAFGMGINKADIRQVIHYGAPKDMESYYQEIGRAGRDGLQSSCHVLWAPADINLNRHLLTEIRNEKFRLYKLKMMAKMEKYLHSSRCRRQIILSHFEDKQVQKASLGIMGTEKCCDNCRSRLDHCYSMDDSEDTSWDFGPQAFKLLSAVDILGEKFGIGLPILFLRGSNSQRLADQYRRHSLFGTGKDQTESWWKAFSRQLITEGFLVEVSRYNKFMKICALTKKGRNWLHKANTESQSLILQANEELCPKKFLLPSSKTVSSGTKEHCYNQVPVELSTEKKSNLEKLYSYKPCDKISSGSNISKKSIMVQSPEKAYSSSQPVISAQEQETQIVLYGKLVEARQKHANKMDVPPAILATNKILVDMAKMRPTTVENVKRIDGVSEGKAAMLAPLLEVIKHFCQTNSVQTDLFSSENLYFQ
T2 sequence (Q14191 whole entry): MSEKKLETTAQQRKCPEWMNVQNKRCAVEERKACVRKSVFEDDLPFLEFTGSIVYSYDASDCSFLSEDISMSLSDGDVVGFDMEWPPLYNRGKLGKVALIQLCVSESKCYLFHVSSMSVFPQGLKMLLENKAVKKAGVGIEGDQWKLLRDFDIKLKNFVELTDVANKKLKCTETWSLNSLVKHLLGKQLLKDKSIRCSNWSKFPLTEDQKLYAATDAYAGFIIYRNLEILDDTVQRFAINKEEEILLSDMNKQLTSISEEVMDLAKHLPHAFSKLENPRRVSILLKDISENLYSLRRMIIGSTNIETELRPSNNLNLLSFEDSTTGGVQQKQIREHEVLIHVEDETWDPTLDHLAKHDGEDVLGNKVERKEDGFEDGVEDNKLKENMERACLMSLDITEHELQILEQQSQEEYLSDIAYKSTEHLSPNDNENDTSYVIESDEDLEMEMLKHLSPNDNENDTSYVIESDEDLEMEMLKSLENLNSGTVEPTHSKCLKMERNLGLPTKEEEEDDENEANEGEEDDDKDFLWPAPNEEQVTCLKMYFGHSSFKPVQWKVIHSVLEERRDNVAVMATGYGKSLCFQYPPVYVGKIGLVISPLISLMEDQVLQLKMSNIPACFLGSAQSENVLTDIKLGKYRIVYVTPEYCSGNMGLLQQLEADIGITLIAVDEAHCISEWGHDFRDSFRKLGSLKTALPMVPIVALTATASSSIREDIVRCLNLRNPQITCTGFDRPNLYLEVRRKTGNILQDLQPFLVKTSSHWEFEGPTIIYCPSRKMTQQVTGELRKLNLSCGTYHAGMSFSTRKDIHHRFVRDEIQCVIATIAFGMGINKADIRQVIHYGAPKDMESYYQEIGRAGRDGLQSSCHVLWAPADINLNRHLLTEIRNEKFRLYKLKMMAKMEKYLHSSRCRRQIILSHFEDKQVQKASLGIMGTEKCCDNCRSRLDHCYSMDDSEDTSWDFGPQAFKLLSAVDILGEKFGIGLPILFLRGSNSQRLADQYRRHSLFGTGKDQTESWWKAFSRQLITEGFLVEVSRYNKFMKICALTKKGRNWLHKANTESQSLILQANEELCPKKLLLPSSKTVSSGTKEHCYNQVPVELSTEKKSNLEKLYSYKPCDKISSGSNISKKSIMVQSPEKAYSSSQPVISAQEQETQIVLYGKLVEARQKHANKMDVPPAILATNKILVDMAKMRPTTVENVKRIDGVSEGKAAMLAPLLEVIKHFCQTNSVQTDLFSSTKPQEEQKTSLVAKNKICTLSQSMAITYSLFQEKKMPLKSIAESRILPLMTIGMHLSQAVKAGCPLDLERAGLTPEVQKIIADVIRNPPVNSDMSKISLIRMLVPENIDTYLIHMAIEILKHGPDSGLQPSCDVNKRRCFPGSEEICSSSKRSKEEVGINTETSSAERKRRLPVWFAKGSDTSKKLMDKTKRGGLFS

IC50 (human Werner helicase) | EC50 (p21 (Homo sapiens)) | SMILES
≤ 5 nM |  | CCc1c(N2CCN(C(=O)c3ncnc(C)c3O)CC2)c(=O)c2nc(-c3ccnc(OC)c3)oc2n1CC(=O)Nc1ccc(C(F)(F)F)cc1Cl [1-2]
≤ 5 nM | ≤ 500 nM | CCc1c(N2CCN(C(=O)c3c(O)ccc4ncoc34)CC2)c(=O)c2oc(-c3ccnc(OC)c3)nc2n1CC(=O)Nc1ccc(C(F)(F)F)cc1Cl [I-5, N-(2-chloro-4-(trifluoromethyl)phenyl)-2-(5-ethyl-6-(4-(6-hydroxybenzo[d]oxazole-7-carbonyl)piperazin-1-y1)-2-(2-methoxypyridin-4-yl)-7-oxooxazolo[4,5-b]pyridin-4(7H)-y1)acetamide]
 | ≤ 500 nM | CCc1c(N2CCN(C(=O)c3ncnc(C)c3O)CC2)c(=O)c2nc(-c3ccnc(OC)c3)oc2n1CC(=O)Nc1ccc(C(F)(F)F)cc1Cl [I-2, N-(2-chloro-4-(trifluoromethyl)phenyl)-2-(5-ethyl-6-(4-(5-hydroxy-6-methylpyrimidine-4-carbonyl)piperazin-1-yl)-2-(2-methoxypyridin-4-yl)-7-oxooxazolo[5,4-b]pyridin-4(7H)-yl)acetamide]
 | 2000 to 5000 nM | CCc1c(N2CCN(C(=O)c3ncnc(C)c3O)CC2)c(=O)c2oc(-c3ccnc(OC)c3)nc2n1CC(=O)NC12CC(C(F)(F)F)(C1)C2 [I-3, 2-(5-ethyl-6-(4-(5-hydroxy-6-methylpyrimidine-4-carbonyl)piperazin-1-yl)-2-(2-methoxypyridin-4-yl)-7-oxooxazolo[4,5-b]pyridin-4(7H)-yl)-N-(3-(trifluoromethyl)bicyclo[1.1.1]pentan-1-yl)acetamide]
≤ 5 nM | ≤ 500 nM | CCc1c(N2CCN(C(=O)c3ncnc(C)c3O)CC2)c(=O)c2oc(-c3ccnc(OC)c3)nc2n1CC(=O)Nc1ccc(C(F)(F)F)cc1Cl [I-1, N-(2-chloro-4-(trifluoromethyl)phenyl)-2-(5-ethyl-6-(4-(5-hydroxy-6-methylpyrimidine-4-carbonyl)piperazin-1-y1)-2-(2-methoxypyridin-4-yl)-7-oxooxazolo[4,5-b]pyridin-4(7H)-yl)acetamide]
5 to 50 nM | > 5000 nM | CCc1c(N2CCN(C(=O)c3ncnc(C)c3O)CC2)c(=O)c2nc(-c3ccnc(OC)c3)oc2n1CC(=O)NC12CC(C(F)(F)F)(C1)C2 [I-4, 2-(5-ethyl-6-(4-(5-hydroxy-6-methylpyrimidine-4-carbonyl)piperazin-1-yl)-2-(2-methoxypyridin-4-yl)-7-oxooxazolo[5,4-b]pyridin-4(7H)-y1)-N-(3-(trifluoromethyl)bicyclo[1.1.1]pentan-1-yl)acetamide]
5 to 50 nM |  | CCc1c(N2CCN(C(=O)c3ncnc(C)c3O)CC2)c(=O)c2oc(-c3ccnc(OC)c3)nc2n1CC(=O)NC12CC(C(F)(F)F)(C1)C2 [1-3]
